Assay results published in patent publication US12077483B2, “Modified amine lipids” (Intellia Therapeutics, Inc., priority 2018, dated 2024).

Key:
[1] = pKa of amine lipid by TNS fluorescence; assay type: physicochemical; conditions: probe TNS (6-(p-toluidino)-2-naphthalenesulfonic acid sodium salt), unformulated amine lipid in ethanol, sodium phosphate buffers -9.0
Method in brief: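 pKa derived from a sigmoidal fit of normalized TNS fluorescence (321 nm excitation, 448 nm emission) versus pH. Lipid from ethanol stock diluted to about 100 μM final in 0.1 M phosphate buffers, pH 4.5–9.0.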

mouse TTR gene = experiment: In vivo editing in mouse liver, LNP with Cas9 mRNA and sgRNA G282, NGS; conditions: Table 3; guide G282; CD-1 female mice, 0.1 mpk i.v., liver at 6 or 7 days; Exp. 1, 8, 9, 10
Description: LNPs were prepared using various amine lipids in a 4-component lipid system consisting of an ionizable lipid (e.g. an amine lipid), DSPC, cholesterol and PEG-2k-DMG. In assays for percent liver editing in mice, Cas9 mRNA and chemically modified sgRNA targeting a mouse sequence were formulated in LNPs, at either a 1:1 w/w ratio or a 1:2 w/w ratio.
The lipid components were dissolved in 100% ethanol with the lipid component molar ratios described below. The chemically modified sgRNA and Cas9 mRNA were combined and dissolved in 25 mM citrate, 100 mM NaCl, pH 5.0, resulting in a concentration of total RNA cargo of approximately 0.45 mg/mL. The LNPs were formulated with an N/P ratio of about 6, with the ratio of chemically modified sgRNA: Cas9 mRNA at either a 1:1 or 1:2 w/w ratio as described below.
CD-1 female mice, ranging from 6-10 weeks of age were used in each study. Animals were weighed and grouped according to body weight for preparing dosing solutions based on group average weight. LNPs were dosed via the lateral tail vein in a volume of 0.2 mL per animal (approximately 10 mL per kilogram body weight). The animals were periodically observed for adverse effects for at least 24 hours post dose.
For studies measuring in vivo editing in liver, CD-1 female mice were dosed at 0.1 mpk unless otherwise noted. Animals were euthanized at 6 or 7 days by exsanguinationvia cardiac puncture under isoflourane anesthesia. Liver tissue was collected from each animal for DNA extraction and analysis. Blood was collected into serum separator tubes or into tubes containing buffered sodium citrate for plasma as described herein. Cohorts of mice were measured for editing by Next-Generation Sequencing (NGS).
In brief, to quantitatively determine the efficiency of editing at the target location in the genome, genomic DNA was isolated and deep sequencing was utilized to identify the presence of insertions and deletions introduced by gene editing.
PCR primers were designed around the target site (e.g., B2M), and the genomic area of interest was amplified. Additional PCR was performed according to the manufacturer's protocols (Illumina) to add the necessary chemistry for sequencing. The amplicons were sequenced on an Illumina MiSeq instrument. The reads were aligned to the relevant reference genome (e.g., GRCm38) after eliminating those having low quality scores. The resulting files containing the reads were mapped to the reference genome (BAM files), where reads that overlapped the target region of interest were selected and the number of wild type reads versus the number of reads which contain an insertion, substitution, or deletion was calculated.
The editing percentage (e.g., the “editing efficiency” or “percent editing”) is defined as the total number of sequence reads with insertions or deletions over the total number of sequence reads, including wild type.
We assessed in vivo editing efficiency for materials delivered with formulations including various amine lipid compounds. Editing was measured using either G282 (SEQ ID No: 1) which targets the mouse TTR gene or G650 (SEQ ID No. 2) which targets the mouse B2M gene. Lipids described above were assessed for efficacy through in vivo editing experiments. LNPs were formulated at a 1:1 w/w ratio of sgRNA to Cas9 mRNA, and at an N/P ratio of about 6. Molar concentrations of lipids in the lipid component of the LNPs are expressed as mol % amine lipid/DSPC/cholesterol/PEG-2k-DMG, e.g. 50/10/38.5/1.5. The final LNPs were characterized to determine the encapsulation efficiency, polydispersity index, and average particle size according to the analytical methods provided above. Analysis of average particle size, polydispersity (PDI), total RNA content and encapsulation efficiency of RNA are shown in Table 2.
To assess whether the editing was dose responsive, experiments were performed in vivo at various LNP dose levels. […]

mouse TTR = experiment: Serum TTR ELISA in mice after LNP delivery; assay type: in vivo; conditions: for Serum TTR: Exp. 1, 8, 9, 10
Method in brief: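 Mouse TTR in serum was quantified by ELISA (samples diluted e.g. 10,000- and/or 2,500-fold) 6–7 days after dosing CD-1 females with LNP, typically 0.1 mpk. Values are reported relative to vehicle-treated controls (%).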

[2] = RNA encapsulation efficiency of LNP (Ribogreen fluorescence assay); assay type: physicochemical; conditions: Table 13; LNP sgRNA:Cas9 mRNA 1:2 w/w, N/P 6.0
Method in brief: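 LNP samples diluted in 1× TE with or without 0.2% Triton-X 100 for total or free RNA, stained ~10 min at room temperature in the dark with RiboGreen; fluorescence ex 488/em 525 nm against RNA standard curves. Encapsulation efficiency = (Total RNA−Free RNA)/Total RNA.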

[3] = LNP average particle size and polydispersity by dynamic light scattering; assay type: physicochemical; conditions: Table 13; LNP sgRNA:Cas9 mRNA 1:2 w/w, N/P 6.0
Method in brief: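 LNPs were diluted in PBS to a count rate of about 200-400 kcps and measured by DLS on a Zetasizer. Size is the intensity-weighted Z-average diameter, reported with number-average diameter, and the polydispersity index describes the spread of sizes around the mean.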

TTR in HUH7 cells = experiment: In vitro editing in HUH7 cells, LNP with Cas9 mRNA and sgRNA G000502, NGS; assay type: cell-based, human; conditions: Table 14; 2000 ng RNA per well, cells harvested 6 hours post-transfection, biological duplicate, G000502 target locus
Description: A series of compounds based on Compound 46 that vary by the inclusion of a C4-12 alkyl at the R^3 position of Formula (IA) (as illustrated in FIG. 13A) were tested for in vitro editing. The human hepatocellular carcinoma cell line […] (Japanese Collection of Research Bioresources Cell Bank, Cat. JCRB0403) was cultured in DMEM media supplemented with 10% fetal bovine serum and 1% Penicillin-Streptomycin. Cells were plated at a density of 20,000 cells/well in a 96-well plate 24 hours prior to transfection (˜80% confluent at time of transfection). The LNPs were formulated at a 1:2 w/w ratio of sgRNA and Cas9 mRNA using the cross flow procedure with lipid molar compositions as described in Table 13 at an N/P ratio of 6.0. LNP compositions were analyzed for average particle size, polydispersity (pdi), total RNA content and encapsulation efficiency of RNA as described in Example 115. Analysis of average particle size, polydispersity (PDI), total RNA content and encapsulation efficiency of RNA are shown in Table 13. LNPs were diluted into media, incubated for 5 minutes at 37 C and pipetted onto cells at a dose of 2000 ng RNA per well. Each condition was assayed in biological duplicate. Cells were harvested post-transfection at 6 hours. Genomic DNA was extracted using 50 μL/well BuccalAmp DNA Extraction solution (Epicentre, Cat. QE09050) according to manufacturer's protocol. All DNA samples were subjected to PCR and subsequent NGS analysis for editing at the G000502 target locus, as described above. As shown in Table 14 and FIG. 13B, all compounds tested were efficacious for in vitro editing.

[4] = Table 3, guide G282, CD-1 female mice, 0.1 mpk i.v.
[5] = Table 3, guide G282, CD-1 female mice, 0.1 mpk i.v., percentage of vehicle control (TSS)

SMILES | pKa [1] | Editing Mean % Indel (mouse TTR gene) | Serum TTR (mouse TTR; [4]) | Serum TTR % TSS (mouse TTR; [5]) | % E [2] | Number Average [nm] [3] | PDI [3] | Z-Ave Size (nm) [3] | Editing (TTR in HUH7 cells) | Serum TTR % TSS (mouse TTR; mouse serum, relative to TSS control of same experiment, dose 0.03 mpk) | Serum TTR % TSS (mouse TTR; mouse serum, relative to TSS control of same experiment, dose 0.1 mpk)
CCCCC/C=C\C/C=C\CCCCCCCC(=O)OCC(COC(=O)CCC(CCCCCCCCCCCC)OC(=O)OCCCN(C)C)OC(=O)CCCCCCC/C=C\C/C=C\CCCCC (stereo not drawn) [Compound 30, 9-dodecyl-2-methyl-7,12-dioxo-6,8,13-trioxa-2-azahexadecane-15,16-diyl (9Z,9′Z,12Z,12′Z)-bis(octadeca-9,12-dienoate)] | 6.53 | 10.4% | 841 µg/mL | 95% TSS | – | – | – | – | – | – | –
CCCCC/C=C\C/C=C\CCCCCCCC(=O)OCC(COC(=O)CCCCCCC/C=C\C/C=C\CCCCC)OC(=O)CCC(CCCC)OC(=O)NCCN(C)CC (stereo not drawn) [Compound 42, 2-((4-(((2-(ethyl(methyl)amino)ethyl)carbamoyl)oxy)octanoyl)oxy)propane-1,3-diyl (9Z,9′Z,12Z,12′Z)-bis(octadeca-9,12-dienoate)] | 6.52 | 21.6% | 473 µg/mL | 58% TSS | – | – | – | – | – | – | –
CCCCC/C=C\C/C=C\CCCCCCCC(=O)OCC(COC(=O)CCCCCCC/C=C\C/C=C\CCCCC)OC(=O)CCC(CCCCCCCCCCCC)OC(=O)OCCCN(C)CC (stereo not drawn) [Compound 3, 2-((4-(((3-(ethyl(methyl)amino)propoxy)carbonyl)oxy)hexadecanoyl)oxy)propane-1,3-diyl (9Z,9′Z,12Z,12′Z)-bis(octadeca-9,12-dienoate)] | 5.89 | 23.7% | 691 µg/mL | 78% TSS | – | – | – | – | – | – | –
CCCCC/C=C\C/C=C\CCCCCCCC(=O)OCC(COC(=O)CCCCCCC/C=C\C/C=C\CCCCC)OC(=O)CCC(CCCC)OC(=O)NCCN1CCCC1 (stereo not drawn) [Compound 85, 2-((4-(((2-(pyrrolidin-1-yl)ethyl)carbamoyl)oxy)octanoyl)oxy)propane-1,3-diyl (9Z,9′Z,12Z,12′Z)-bis(octadeca-9,12-dienoate)] | 7.02 | – | – | – | 96% | 93.05 nm | 0.045 | 117.1 nm | 66.4% | – | –
CCCCC/C=C\C/C=C\CCCCCCCC(=O)OCC(COC(=O)CCCCCCC/C=C\C/C=C\CCCCC)OC(=O)CCC(CCCCCCCCCCCC)OC(=O)NCCN1CCCC1 (stereo not drawn) [Compound 46, 2-((4-(((2-(pyrrolidin-1l-yl)ethyl)carbamoyl)oxy)hexadecanoyl)oxy)propane-1,3-diyl (9Z,9′Z,12Z,12′Z)-bis(octadeca-9,12-dienoate)] | 6.16 | – | – | – | 99% | 76.76 nm | 0.003 | 94.54 nm | 63.7% | – | –
CCCCC/C=C\C/C=C\CCCCCCCC(=O)OCC(COC(=O)CCCCCCC/C=C\C/C=C\CCCCC)OC(=O)NCCN(C)CC [Compound 114, 2-(((2-(ethyl(methyl)amino)ethyl)carbamoyl)oxy)propane-1,3-diyl (9Z,9′Z,12Z,12′Z)-bis(octadeca-9,12-dienoate), reference compound] | 6.93 | 0.8% | 637 µg/mL | 78% TSS | – | – | – | – | – | – | –
CCCCC/C=C\C/C=C\CCCCCCCC(=O)OCC(COC(=O)CCCCCCC/C=C\C/C=C\CCCCC)OC(=O)CCC(CCCCCCC)OC(=O)NCCN1CCCC1 (stereo not drawn) [Compound 76, 2-((4-(((2-(pyrrolidin-1l-yl)ethyl)carbamoyl)oxy)undecanoyl)oxy)propane-1,3-diyl (9Z,9′Z,12Z,12′Z)-bis(octadeca-9,12-dienoate)] | 6.74 | – | – | – | – | – | – | – | 61.2% | 69.72 % TSS | 12.79 % TSS
CCCCC/C=C\C/C=C\CCCCCCCC(=O)OCC(COC(=O)CCCCCCC/C=C\C/C=C\CCCCC)OC(=O)CCC(OC(=O)NCCN(C)CC)C1CCCCC1 (stereo not drawn) [Compound 41, 2-((4-cyclohexyl-4-(((2-(ethyl(methyl)amino)ethyl)carbamoyl)oxy)butanoyl)oxy) propane-1,3-diyl (9Z,9′Z,12Z,12′Z)-bis(octadeca-9,12-dienoate)] | 6.51 | 28.8% | 393 µg/mL | 48% TSS | – | – | – | – | – | – | –
